Results on 3 molecules are retold here after patent US20260191766A1, “USE OF CONDITIONED MEDIUM DERIVED FROM CULTIVATION OF MESENCHYMAL STEM CELLS OF THE UMBILICAL CORD FOR INDUCING, STIMULATING AND PROMOTING HAIR GROWTH AND REGENERATION” (CELLRESEARCH CORPORATION PTE. LTD., priority 2022, published 2026).

In assay [1] the test system is COVID-19-induced scalp alopecia (telogen effluvium). The assay is described as follows: Example 8: case study, COVID-19-induced telogen effluvium. The class given is in vivo, human. The settings on record: same patient; minoxidil and LED light treatment (Hairmax). How it is done:
COVID-19-induced scalp Alopecia can induce telogen effluvium (TE) which refers to diffuse scalp alopecia. A patient with severe chronic TE with no spontaneous recovery after 6 months of hair loss and no response to conventional treatment of minoxidil and LED light treatment (Hairmax) was treated with a composition comprising conditioned medium derived from cultivation of mesenchymal stem cells of the umbilical cord (CALECIM® Advanced Hair System).
The scalp of the patient was progressively treated with rubbing with an alcohol swab, then 1 ml of a composition comprising conditioned medium derived from cultivation of mesenchymal stem cells of the umbilical cord was applied and massaged in till dry. The patient was advised to wait until evening to wash their hair. Five treatments of conditioned medium derived from cultivation of mesenchymal stem cells of the umbilical cord spaced a month apart were administered.

Assay [2] has as its system human follicle dermal papilla cells (HFDPC). Briefly: growth promotion on cultured human follicle dermal papilla cells (WST-8). The class given is cell-based. The source says: Hair growth is controlled by a unique repetitive cycle comprised of anagen, catagen and telogen phases. Dermal papilla cells (DPCs), a group of specialized fibroblasts within the hair follicle bulb, have an essential function in the control of hair growth not only in the normal hair cycle but also in the pathogenesis of certain conditions, for example in androgenetic alopecia. Therefore, factors affecting the functions of DPCs in hair loss are of great importance from the therapeutic viewpoint. […] HFDPCs are either treated with different concentrations of Minodixil (0.0125-200 μg/mL; see Table 3, left column, serving as the reference) or conditioned medium of the invention at different dilutions (PC, dilution range from 10-1280 times; see third column of Table 3). The negative control (NC) refers to HFDPCs incubated with basal medium only. All data are shown as the mean±standard deviation (SD). For comparison of different treatments between 2 groups, the Student's t test was used. p<0.05 was considered significant, p<0.01 would normally be considered highly significant, and p<0.001 extremely significant. After calculation, p is 0.03.

For another assay, the system named is elastin mRNA in HDFs. As to conditions: 24 hours, 1 ng/ml; cited from earlier work.

Consider `Nc1cc(N2CCCCC2)nc(N)[n+]1[O-]` [Minoxidil], for which the “response to conventional treatment before the study treatment” value in assay [1] was “no response”. Also, the “cell count of HFDPC (% of control)” value in assay [2] (Minoxidil 0.0125 ug/mL) is 94 ± 0.6 % of control; in assay [2] (Minoxidil 0.025 ug/mL), 92.2 ± 1.4 % of control; in assay [2] (Minoxidil 0.05 ug/mL), 120.8 ± 4.8 % of control; in assay [2] (Minoxidil 0.1 ug/mL), 120.8 ± 8.8 % of control; in assay [2] (Minoxidil 0.2 ug/mL), 123.2 ± 8.4 % of control; in assay [2] (Minoxidil 2 ug/mL), 124.5 ± 10.2 % of control. Besides, the “cell count of HFDPC (% of control)” value is 98.5 ± 7.7 % of control in assay [2] (Minoxidil 20 ug/mL) and 43 ± 2.6 % of control in assay [2] (Minoxidil 200 ug/mL). For the same molecule, the “more cells compared to negative control” value in assay [2] (diluted 320 times) is “around 20%”.

“TGF-β1: transforming growth factor, literature data”: the “maximum increase of elastin mRNA steady-state levels” value in the assay with elastin mRNA in HDFs was 30 fold.

B1: TGF-β2: transforming growth factor, literature data (protein, UniProt P61812 303-414, looked up)
Transforming growth factor …: ALDAAYCFRNVQDNCCLRPLYIDFKRDLGWKWIHEPKGYNANFCAGACPYLWSSDTQHSRVLSLYNTINPEASASPCCVSQDLEPLTILYYIGKTPKIEQLSNMIVKSCKCS
On to B1, for which, in the assay on elastin mRNA in HDFs, the “maximum increase of elastin mRNA steady-state levels” value was 30 fold.
